Reference: the supplement of paper PMC10627819

How the values were obtained:
Experiment in all cases: Bliss interaction score (quartile over a dose matrix) (fitness difference); higher = more antagonism (negative = synergy)
[1] = test system: S. aureus Newman
Method in brief: (§1)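 Growth in each well was taken as OD595 at entry into stationary phase. Dividing by the plate's robust no-drug mean and capping at 1 gave fitness, and single-drug fitness was inferred from the combination data. The Bliss score, observed minus product-expected fitness, is summarised by quartiles over technical, biological and donor/recipient replicates.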

[2] = test system: S. pneumoniae D39V
Method in brief: as §1

[3] = test system: S. aureus DSM 20231
Method in brief: as §1

[4] = test system: B. subtilis 168
Method in brief: as §1
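Note: first quartile when negative (synergy) and third quartile when positive (antagonism).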

SMILES	Bliss interaction score [1]	Bliss interaction score [2]	Bliss interaction score [3]	Bliss interaction score [4]	Bliss interaction score ([1]; main component drawn)	Bliss interaction score ([2]; main component drawn)	Bliss interaction score ([3]; main component drawn)	Bliss interaction score ([4]; main component drawn)
CC(=O)NC[C@H]1CN(c2ccc(N3CCOCC3)c(F)c2)C(=O)O1 [Linezolid] + CN[C@H](CC(C)C)C(=O)N[C@H]1C(=O)N[C@@H](CC(N)=O)C(=O)N[C@H]2C(=O)N[C@H]3C(=O)N[C@H](C(=O)N[C@H](C(=O)O)c4cc(O)cc(O)c4-c4cc3ccc4O)[C@H](O[C@H]3C[C@](C)(N)[C@@H](O)[C@H](C)O3)c3ccc(c(Cl)c3)Oc3cc2cc(c3O[C@@H]2O[C@H](CO)[C@@H](O)[C@H](O)[C@H]2O[C@H]2C[C@](C)(NCc3ccc(-c4ccc(Cl)cc4)cc3)[C@@H](O)[C@H](C)O2)Oc2ccc(cc2Cl)[C@H]1O [Oritavancin]	-0.0463	0.0845	-0.0323	0.0399				
CC(=O)NC[C@H]1CN(c2ccc(N3CCOCC3)c(F)c2)C(=O)O1 [Linezolid] + CO[C@@]12[C@H](COC(N)=O)C3=C(C(=O)C(C)=C(N)C3=O)N1C[C@@H]1N[C@@H]12 [MitomycinC]	0.0823	-0.0668	-0.068	0.0314				
CC(=O)NC[C@H]1CN(c2ccc(N3CCOCC3)c(F)c2)C(=O)O1 [Linezolid] + Oc1cc(Cl)ccc1Oc1ccc(Cl)cc1Cl [Triclosan]	0.026	-0.0928	-0.0777	0.0335				
CO[C@@]12[C@H](COC(N)=O)C3=C(C(=O)C(C)=C(N)C3=O)N1C[C@@H]1N[C@@H]12 [MitomycinC] + C/C(=C\C(=O)OCCCCCCCCC(=O)O)C[C@@H]1OC[C@H](C[C@@H]2O[C@H]2[C@@H](C)[C@H](C)O)[C@@H](O)[C@H]1O [Pseudomonic acid]	-0.0169	-0.0895	-0.011	-0.0185				
CO[C@@]12[C@H](COC(N)=O)C3=C(C(=O)C(C)=C(N)C3=O)N1C[C@@H]1N[C@@H]12 [MitomycinC] + CC1(C)S[C@@H]2[C@H](NC(=O)Cc3ccccc3)C(=O)N2[C@H]1C(=O)O [PenicillinG]	-0.0455	0.103	-0.0709	-0.0602				
CO[C@@]12[C@H](COC(N)=O)C3=C(C(=O)C(C)=C(N)C3=O)N1C[C@@H]1N[C@@H]12 [MitomycinC] + CC1=C\[C@@H](O)CC(=O)Cc2nc(co2)C(=O)N2CCC=C2C(=O)O[C@H](C(C)C)[C@H](C)/C=C/C(=O)NC\C=C\1 [Virginiamycin M1]	-0.059	0.0805	0.0401	0.0757				
CO[C@@]12[C@H](COC(N)=O)C3=C(C(=O)C(C)=C(N)C3=O)N1C[C@@H]1N[C@@H]12 [MitomycinC] + CCC(C)C1C(=O)NC(=C)C(=O)NC(C(=O)NC(CSCC(C(=O)N1)NC(=O)/C(=C/C)/NC(=O)C(C(C)CC)N)C(=O)NC2C(SCC(NC(=O)CNC(=O)C3CCCN3C2=O)C(=O)NC(CCCCN)C(=O)NC4C(SCC(NC(=O)CNC(=O)C(NC(=O)C(NC(=O)C(NC(=O)CNC4=O)C)CC(C)C)CCSC)C(=O)NC(CC(=O)N)C(=O)NC(CCSC)C(=O)NC(CCCCN)C(=O)NC5C(SCC6C(=O)NC(C(=O)NC(CSC(C(C(=O)N6)NC(=O)C(NC5=O)C)C)C(=O)NC(CO)C(=O)NC(C(C)CC)C(=O)NC(CC7=CN=CN7)C(=O)NC(C(C)C)C(=O)NC(=C)C(=O)NC(CCCCN)C(=O)O)CC8=CN=CN8)C)C)C)CC(C)C [Nisin]					-0.0537	-0.0423	-0.242	-0.0279
CO[C@@]12[C@H](COC(N)=O)C3=C(C(=O)C(C)=C(N)C3=O)N1C[C@@H]1N[C@@H]12 [MitomycinC] + CCCCCCCCCC(=O)N[C@@H]1[C@H]([C@@H]([C@H](O[C@H]1OC2=C3C=C4C=C2OC5=C(C=C(C=C5)[C@H]([C@H]6C(=O)N[C@@H](C7=C(C(=CC(=C7)O)OC8[C@H]([C@H]([C@@H]([C@H](O8)CO)O)O)O)C9=C(C=CC(=C9)[C@H](C(=O)N6)NC(=O)[C@@H]4NC(=O)[C@@H]1C2=CC(=CC(=C2)OC2=C(C=CC(=C2)[C@H](C(=O)N[C@H](CC2=CC(=C(O3)C=C2)Cl)C(=O)N1)N)O)O)O)C(=O)O)O[C@H]1[C@@H]([C@H]([C@@H]([C@H](O1)CO)O)O)NC(=O)C)Cl)CO)O)O [Teicoplanin]					-0.228	-0.0795	-0.126	-0.0487
CO[C@@]12[C@H](COC(N)=O)C3=C(C(=O)C(C)=C(N)C3=O)N1C[C@@H]1N[C@@H]12 [MitomycinC] + CCN(CC)CCOC(=O)c1ccc(N)cc1 [Procaine]	0.0275	0.0639	0.0322	0.0575				
CO[C@@]12[C@H](COC(N)=O)C3=C(C(=O)C(C)=C(N)C3=O)N1C[C@@H]1N[C@@H]12 [MitomycinC] + CC[C@H]1OC(=O)[C@H](C)C(=O)[C@H](C)[C@@H](O[C@@H]2O[C@H](C)C[C@H](N(C)C)[C@H]2O)[C@](C)(OC)C[C@@H](C)C(=O)[C@H](C)[C@H]2N(CCCCn3cnc(-c4cccnc4)c3)C(=O)O[C@]12C [Telithromycin]	-0.0269	-0.102	-0.0567	0.0694				
CO[C@@]12[C@H](COC(N)=O)C3=C(C(=O)C(C)=C(N)C3=O)N1C[C@@H]1N[C@@H]12 [MitomycinC] + CN1C2=CC=CC=C2N=C3C1=CC=CC3=O [Pyocyanin]	-0.0681	0.0705	0.0464	0.0608				
CO[C@@]12[C@H](COC(N)=O)C3=C(C(=O)C(C)=C(N)C3=O)N1C[C@@H]1N[C@@H]12 [MitomycinC] + CN(C)c1cc(NC(=O)CNC(C)(C)C)c(O)c2c1C[C@H]1C[C@H]3[C@H](N(C)C)C(O)=C(C(N)=O)C(=O)[C@@]3(O)C(O)=C1C2=O [Tigecycline]	-0.0488	0.0464	0.0285	0.245				
CO[C@@]12[C@H](COC(N)=O)C3=C(C(=O)C(C)=C(N)C3=O)N1C[C@@H]1N[C@@H]12 [MitomycinC] + CN(N=O)C(=O)N[C@@H](C=O)[C@@H](O)[C@H](O)[C@H](O)CO [Streptozotocin]	0.0483	-0.0613	0.0493	-0.037				
